What all share (test): NCI anticancer screen, dose series, 48 h
For test [1], the system named is SK-MEL-5.
Test [2] has as its system NCI-H226.
Test [3] deals with SR.
Test [4] has as its system MOLT-4.
Test [5] deals with CCRF-CEM.
Test [6] concerns SF-539.
The subject of test [7] is K562.
Test [8] relates to OVCAR-5.
In test [9] the test system is DMS-114.
In test [10] the test system is SK-MEL-2.
The test system of test [11] is NCI-H23.
Test [12] relates to ACHN.
The subject of test [13] is DLD-1.
Test [14] concerns TK-10.
The test system of test [15] is Hs-578T.
Test [16] relates to T47D.
Test [17] relates to HL-60.
The subject of test [18] is CAKI-1.
Test [19] relates to 786-0.
The test system of test [20] is M19-MEL.

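Grown in 96-well plates, cells were treated for 48 hours with each compound at five concentrations. Insufficient inhibition: endpoint recorded as highest concentration tested. GI50 = concentration required for 50% inhibition of growth.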 Calls of active or inactive are those of the source. Cut-off read from the data, not from the text of the source: active = GI50 up to about 1.1 µM and inactive = higher. A value given as a limit tells only on which side of the number the result lay.

`COC(=O)CC(=O)OSc1ccccc1`: the GI50 in [1] is 22.3 µM (inactive); in [2] it was 24.6 µM (inactive); in test [3], 6.03 µM (inactive); in test [4], 4.63 µM (inactive); in test [5], 3.76 µM (inactive); in test [6] it was 12.3 µM (inactive). Further, the GI50 in [7] is 35.2 µM (inactive); in [8] it was 45 µM (inactive); in test [9], 11.6 µM (inactive); in test [10] it was 34.6 µM (inactive); in test [11] it was 24.7 µM (inactive); in test [12] it was 18.2 µM (inactive). For the same compound, the GI50 is 17.2 µM (inactive) in test [13] and 43 µM (inactive) in [14].
Take `Cc1nc2cc(/N=N/c3c(C)noc3C)ccc2[nH]1`: the GI50 in [1] is 12.4 µM (inactive); in test [15], 16.5 µM (inactive); in [2] it was > 100 µM (inactive); in test [16], 1.67 µM (inactive); in [3], 16.9 µM (inactive); in [4], 17.9 µM (inactive). Moreover, the GI50 was 13.1 µM (inactive) in test [17]; 25.2 µM (inactive) in test [5]; 17.6 µM (inactive) in test [6]; 35.6 µM (inactive) in test [7]; 28 µM (inactive) in test [8]; 34.8 µM (inactive) in [10]. Besides, the GI50 in [18] is 18.9 µM (inactive); in [11] it was 35.3 µM (inactive); in test [12], 25.1 µM (inactive); in test [19] it was 28.1 µM (inactive); in test [14] it was 22.9 µM (inactive).
Take `Cc1cc(O)c(C(=O)CC2(O)C(=O)Nc3c(Cl)cc(Cl)cc32)c(=O)o1` (stereo unspecified): the GI50 in test [1] is > 100 µM (inactive); in [2], 88.1 µM (inactive); in test [3], > 100 µM (inactive); in [4], > 100 µM (inactive); in test [17], > 100 µM (inactive); in [5], 63 µM (inactive). Also, the GI50 is 61.1 µM (inactive) in test [6]; > 100 µM (inactive) in [7]; > 100 µM (inactive) in test [8]; > 100 µM (inactive) in test [10]; > 100 µM (inactive) in [18]; > 100 µM (inactive) in [11]. Besides, the GI50 in test [20] was 46.8 µM (inactive); in [12] it was > 100 µM (inactive); in test [13], > 100 µM (inactive); in test [19], > 100 µM (inactive); in [14], > 100 µM (inactive).
For the compound `CC1C=CN(N(C)C)C2=C1C(=O)c1cnccc1C2=O` (stereo unspecified), the GI50 in [1] is 0.274 µM (active); in test [15], 0.693 µM (active); in test [2] it was 0.508 µM (active); in test [16], 1.83 µM (inactive); in [3] it was 0.0156 µM (active); in test [4] it was 1.76 µM (inactive). Further, the GI50 in test [17] was 1.47 µM (inactive); in test [5], 2.09 µM (inactive); in test [6] it was 0.293 µM (active); in [7], 0.205 µM (active); in test [8] it was 1.37 µM (inactive); in test [10], 1.63 µM (inactive). Moreover, the GI50 was 0.108 µM (active) in test [18]; 0.261 µM (active) in test [11]; 0.251 µM (active) in test [12]; 0.195 µM (active) in test [19]; 0.513 µM (active) in test [14].
With `CC1(C)OC2OC(C(=O)c3ccccc3)C3OC(C)(C)OC3C2O1` (stereo unspecified), the GI50 in [1], in test [15], in [2], in [16], in test [3] and in test [4] was > 100 µM (inactive) in each case. Further, the GI50 in [17], in test [5], in [6], in [7], in test [8] and in test [10] was > 100 µM (inactive) throughout. Further, the GI50 in test [18], in test [11], in test [12], in [19] and in test [14] was > 100 µM (inactive) each time.
Turning to `COc1cc(C2C(Cl)C(=O)N2NC(=O)c2ccc(NC(C)=O)cc2)cc(Br)c1O` (stereo unspecified), the GI50 in test [1], in [2], in test [3], in test [4], in [17] and in test [5] was > 100 µM (inactive) each time. Further, the GI50 in test [6], in test [7], in test [8], in test [10], in [11] and in test [20] was > 100 µM (inactive) throughout. In addition, the GI50 in test [12], in test [13] and in [14] was > 100 µM (inactive) throughout.
For the compound `COc1ccc(C[C@@H]2OC3(C=CC(=O)CC3Sc3ccccc3)O[C@H]2Cc2ccc(OC)cc2)cc1` (stereo partly specified), the GI50 in [1] is 1.37 µM (inactive); in test [15], 1.41 µM (inactive); in test [2] it was 1.53 µM (inactive); in test [16], 0.813 µM (active); in test [3], 0.187 µM (active); in test [4], 0.282 µM (active). Moreover, the GI50 was 1.12 µM (active) in test [17]; 0.216 µM (active) in test [5]; 1.64 µM (inactive) in [6]; 1.9 µM (inactive) in [7]; 1.14 µM (inactive) in test [8]; 1.53 µM (inactive) in test [10]. Besides, the GI50 is 2.05 µM (inactive) in [18]; 1.71 µM (inactive) in [11]; 1.36 µM (inactive) in test [12]; 0.151 µM (active) in [19]; 1.67 µM (inactive) in [14].
On to `CC(=O)Nc1ccc(/C=C(\NC(=O)c2ccccc2)C(=O)NNS(=O)(=O)c2ccc(C)cc2)cc1`, for which the GI50 in test [1] was > 100 µM (inactive); in test [2], > 100 µM (inactive); in test [3] it was 20.1 µM (inactive); in test [4] it was > 100 µM (inactive); in test [17] it was > 100 µM (inactive); in [5] it was > 100 µM (inactive). The GI50 in [6], in test [7], in test [8], in test [10], in test [18] and in [11] was > 100 µM (inactive) each time. In addition, the GI50 in [20] is > 100 µM (inactive); in test [12] it was > 100 µM (inactive); in [13], 33 µM (inactive); in [19] it was > 10 µM (inactive); in test [14], > 100 µM (inactive).
With `O=C1OC(c2ccco2)=N/C1=C\c1ccc(Cl)c(Cl)c1`, the GI50 was > 100 µM (inactive) in [1]; 36.1 µM (inactive) in test [15]; 57.5 µM (inactive) in test [2]; 40.9 µM (inactive) in test [16]; > 100 µM (inactive) in [3]; > 100 µM (inactive) in test [4]. For the same compound, the GI50 is > 100 µM (inactive) in [17]; > 100 µM (inactive) in test [5]; 50 µM (inactive) in [6]; > 100 µM (inactive) in test [7]; > 100 µM (inactive) in test [8]; > 100 µM (inactive) in test [10]. Moreover, the GI50 in [18] is 91 µM (inactive); in [11] it was > 100 µM (inactive); in [12], 60 µM (inactive); in test [19], 38 µM (inactive); in test [14] it was 66.7 µM (inactive).
Turning to `CCCCCC(/C=C/[C@@H]1CC(=O)C[C@H]1O[Si](C)(C)C(C)(C)C)OCOCCOC` (stereo partly specified), the GI50 in test [1] is 3.33 µM (inactive); in test [15], 2.9 µM (inactive); in [2] it was 5.48 µM (inactive); in test [16] it was 11.1 µM (inactive); in test [3], 1.5 µM (inactive); in test [4] it was 1.75 µM (inactive). Further, the GI50 in [17] was > 100 µM (inactive); in test [5], > 100 µM (inactive); in test [6], 2.32 µM (inactive); in [7] it was 2.4 µM (inactive); in [8] it was 10 µM (inactive); in [10] it was 4.22 µM (inactive). Besides, the GI50 in test [18] is 3.07 µM (inactive); in [11], 3.56 µM (inactive); in test [12], 2.96 µM (inactive); in test [19], 3.74 µM (inactive); in test [14], 12.9 µM (inactive).
As to `CCOC(=O)[N-]c1ccc(S(=O)(=O)[O+](C)CCl)cc1.CCOC(=O)[N-]c1ccc(S(=O)(=O)[O+](C)CCl)cc1.NC(=O)N=O.NC(=O)OCCCl`, the GI50 in test [3], in [4], in test [17], in [5], in test [6] and in [7] was > 100 µM (inactive) throughout. Moreover, the GI50 in test [8], in [9], in test [10], in [18], in test [11] and in test [20] was > 100 µM (inactive) each time. The GI50 in test [19] and in test [14] was > 100 µM (inactive) throughout.
Regarding `CC(CC[C@@]1(C)C(=O)CCC2O[C@]21C)[C@H]1C[C@@H](c2ccoc2)OC1=O` (stereo partly specified), the GI50 is > 100 µM (inactive) in [1]; 39.3 µM (inactive) in [15]; > 100 µM (inactive) in test [2]; > 100 µM (inactive) in test [16]; 97.9 µM (inactive) in test [3]; 28.3 µM (inactive) in [4]. The GI50 was 23.7 µM (inactive) in test [17]; 19.6 µM (inactive) in test [5]; 35.7 µM (inactive) in test [6]; 22.3 µM (inactive) in [7]; 61.1 µM (inactive) in [8]; > 100 µM (inactive) in test [10]. Also, the GI50 in test [18] is 26.5 µM (inactive); in test [11] it was 61.4 µM (inactive); in [12], 22.1 µM (inactive); in test [19], 28.8 µM (inactive); in test [14], 35.8 µM (inactive).

Source of the values: ChEMBL document CHEMBL1201862, “PubChem BioAssay data set” (2004).
